Test results reported in patent US6429204B1, “Method of inhibiting cancer growth” (University of Miami, priority 1997, dated 2002).

Assays:
[1] = test system: HIV-related Kaposi's Sarcoma; assay: Oral dose escalation study in patients with Kaposi's Sarcoma; format: in vivo, human
Procedure: CMT-3 was administered orally, once daily, in a dose escalating fashion to 3-6 subjects per dose cohort. Patients with symptomatic visceral Kaposi's Sarcoma or severe tumor-associated edema were excluded. Antiretroviral therapy was permitted but not required. Study endpoints were grade 3 or grade 4 toxicity or progression of disease. Preliminary analysis was performed. Eighteen patients received CMT-3 in dosing cohorts of 25, 50 and 70 mg/m^2/day. The average age was 39 years (range, 25-57). Median CD4 count was 352 cells/mm^3 (range, 6-694). Prior therapy for Kaposi's Sarcoma was reported by 16 (89%) patients; prior antiretroviral therapy by 16 (89%) patients. Half of the patients had ≧50 lesions at baseline. Grade 3 or higher events, which were possibly/definitely related to study drug, were reported by 6 patients and consisted of photosensitivity, increased pain, headache, rash and pruritis.

Dunning MAT LyLu cells = assay: Cytotoxic effect on MAT LyLu cells (trypan blue); format: cell-based, rat; settings: 24 hr or 48 hr exposure
Procedure: Cell viability was estimated by trypan blue staining following exposure to the drugs. The results of these studies are summarized in FIG. 4A (24 hours) and FIG. 4B (48 hr). Data are presented as Mean±SEM from three separate experiments.

gelatinase A (MMP-2) = assay: Gelatin zymography of conditioned media of TSU PR1 and MAT LyLu cells, MMP-2; format: cell-based; settings: 48 hours, serum-free medium
Procedure: Next we examined whether CMT-3 and doxycycline differentially affect the production of two major classes of gelatinases: gelatinase A (MMP-2) and gelatinase B (MMP-9). Confluent cultures of TSU PR1 and MAT LyLu cells were incubated with various concentrations of doxycycline and CMT-3 for 48 hours in serum-free medium. The conditioned media were then analyzed for MMPs by zymography as described below.
Conditioned media were collected from the cultures that had been treated with doxycycline or CMT-3 for 2 days. Media were then incubated with SDS-gel electrophoresis sample buffer for 30 min at room temperature, and then analyzed by gel electrophoresis on SDS-polyacrylamide gel (8%) containing gelatin (1 mg/mL). Following electrophoresis, the gels were washed twice with 0.25% TRITON® X100 for 30 min each, and incubated for 18 hr at 37° C. in an MMP digestion buffer comprising 20 mM Tris-HCl, pH 7.4, containing 30 mM NaCl, 1 mM PMSF, 10 mM CaCl2, 2 μM ZnSO4, 0.005% Brij35, and 0.02 NaN3 (Lokeshwar 1993a). After incubation, the gels were briefly rinsed in distilled water and stained with 0.25% Coomassie brilliant blue R250 prepared in 40% isopropanol solution for 1 hr. Gels were destained with 7% acetic acid. the locations of MMPs in the gels were visible as clear areas on a blue background, indicative of digested gelatin.

Serum half-life = format: in vivo
[2] = test system: activation of MMPs by p-aminophenyl mercuric acetate; assay: Inhibition of APMA activation of MMPs in processed conditioned medium; format: biochemical
Procedure: In addition, the ability of doxycycline or CMT-3 to inhibit APMA activation of MMPs was tested. Processed culture-conditioned medium was incubated with the drugs for 1 hr before adding 1 mM APMA, and the incubation was continued thereafter for 2 hr. ^3H-gelatin was then added and the assy was continued for 4 hr. All assays were performed in duplicate tubes, and repeated at least twice.
MMP activity in the culture media was examined at 1 mM and 10 mM CaCl2, with no change in [Zn^2+] in the assay buffer. We employed 1 mM CaCl2, as this concentration is closer to physiological concentration, and 10 mM CaCl2, as it is reported to be the optimum concentration in in vitro assays (Woessner 1991). As is shown in Table 2, both CMT-3 and doxycycline inhibited in vitro activated gelatinases.

Gelatinase A = target: T1, Gelatinase A (Homo sapiens, UniProt P08253); assay: Zymography with densitometry of C8161 conditioned medium, gelatinase A; format: cell-based; settings: 50 μg/mL, 24 hr
T1 construct: endogenous in cells; host or cells: C8161
T1 sequence (P08253 110-660): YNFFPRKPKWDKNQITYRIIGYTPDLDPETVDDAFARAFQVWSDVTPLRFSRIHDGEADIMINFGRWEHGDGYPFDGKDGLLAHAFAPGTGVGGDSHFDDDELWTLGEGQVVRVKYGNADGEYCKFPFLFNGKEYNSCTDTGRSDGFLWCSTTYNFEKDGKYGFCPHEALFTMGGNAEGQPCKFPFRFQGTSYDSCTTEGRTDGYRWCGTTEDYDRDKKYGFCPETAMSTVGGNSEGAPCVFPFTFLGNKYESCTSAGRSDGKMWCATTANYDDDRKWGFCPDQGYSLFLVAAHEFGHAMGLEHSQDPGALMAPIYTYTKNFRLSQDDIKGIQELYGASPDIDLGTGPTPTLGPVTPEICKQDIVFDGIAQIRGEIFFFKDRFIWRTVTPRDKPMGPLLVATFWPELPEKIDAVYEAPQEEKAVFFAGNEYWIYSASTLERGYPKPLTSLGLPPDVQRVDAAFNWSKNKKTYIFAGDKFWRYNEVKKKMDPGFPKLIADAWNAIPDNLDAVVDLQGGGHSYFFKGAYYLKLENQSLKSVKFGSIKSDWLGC
Procedure: Six hundred thousand (6×10^5) C8161 cells were seeded per well in a 12-well dish coated with a laminin/collagen IV/gelatin matrix in DMEM plus Mito+ and 0.1% gentamicin sulfate. After approximately 1 hr incubation to allow the cells to attach, 50 μg/mL of either doxycycline or one of the other CMTs was added per well and the dish then placed in a 37° C. humidified 5% CO2 incubator. After 24 hr, the supernatants were removed and centrifuged to remove any cells or debris. One volume of Laemmli sample buffer minus reductant was added to two volumes of the medium, and this sample electrophoresed without prior heating or boiling on a 10% SDS-PAGE containing 0.1% gelatin (samples normalized based on the same number of cells per volume of medium per time of incubation). After electrophoresis, the gels were washed with gentle shaking at room temperature for 30 min in 50 mM Tris-HCl (pH 7.5) plus 2.5% TRITON® X100 plus 50 μg/mL of the corresponding CMT used in the original treatment. The gel was then placed in incubation buffer (50 mM Tris-Cl/10 mM CaCl2/150 mM NaCl/0.05% NaN3) also containing 50 μg/mL of the corresponding CMT, and incubated at 37° C. for 20-24 hr. The gels were stained with Coomassie BBR-250, then destained with 10% methanol/10% acetic acid in water until the wash remained clear. A photographic negative of the gel was digitized using a video camera and Snappy Video Snapshot system (Play Inc., Rancho Cordova, Calif.). An integrated density was determined for each of the cleared zones of proteolysis using the software ImagePC8α (freely available from the National Institutes of Health), and the corresponding changes in gelatinolytic activities reported compared to the control samples normalized to a value of 1.0.

NC(=O)C1=C(O)CC2CC3Cc4cccc(O)c4C(=O)C3=C(O)C2(O)C1=O (stereo not shown) [CMT-3, 6-demethyl-6-deoxy-4-de(dimethylamino)tetracycline]
Partial responses ([1]; 25 mg/m^2/day cohort): 2 patients
photosensitivity ([1]; 25 mg/m^2/day cohort): no photosensitivity was observed
Partial responses ([1]; 50 mg/m^2/day cohort): 2 patients
Partial responses ([1]; 70 mg/m^2/day cohort): 3 patients
Partial responses ([1]; all cohorts, eighteen patients, oral once daily): 7 patients
Grade 3 or higher events possibly/definitely related to study drug ([1]; eighteen patients, 25, 50 and 70 mg/m^2/day): 6 patients
tolerability ([1]; oral once daily, particularly 25 mg/m^2/day): well tolerated
inhibition of cell proliferation (rank among tested drugs) (Dunning MAT LyLu cells): most effective inhibitors of cell proliferation
MMP-2 levels in conditioned media (zymography) (gelatinase A (MMP-2)): decreased MMP-2 and MMP-9 levels at a lower concentration than did doxycycline
half-life (Serum half-life): ~28 h
IC50, inhibition of activation of MMPs by APMA ([2]; 10 mM CaCl2): 1.0 µg/mL
IC50 ([2]; 10 mM CaCl2, value in brackets): 2.2 µM
Gelatinase A, integrated density normalized to control 1.00 (Gelatinase A): 0.22
